Source: patent US6852708B2, “Use of hyaluronic acid and forms to prevent the narrowing of the vascular walls” (Jagotec AG, priority 1991, dated 2005)
Values joined by “and” are separate entries in the source; they are usually repeats but may differ in a detail not shown here. Identical values can stand only once.

Experiments:
[1] = system: Human neutrophils; test: Chemotaxis of neutrophils to IL-8; format: cell-based; conditions: 100 ng/mL IL-8; peptide 2 μg/mL; FIG. 10
Method: (§1) The HA-binding region of RHAMM consists of two 10 amino acid domains located close to the carboxy terminus of the protein^15. A peptide mimicking Domain I (amino acides^401-411)—[…]—and a scrambled peptide consisting of the same amino acids arranged in a random manner-———-were synthesized at the Manitoba Institute of Cell Biology. Both peptides were used at a final concentration of 2 μg/mL in locomotion assays.
Human neutrophils were obtained from peripheral blood samples of normal volunteers and mixed in ACD solution (0.085) M trisodium citrate, 0.065 M citric acid, 2% Dextrose) to prevent clotting. 5% Dextran was added and the separated plasma and white blood cells were removed. The cells were washed twice in PBS, pH 7.2 and a Ficoll gradient was used to separate the lymphocytes. The isolated neutrophils were then washed and resuspended in PBS. […]
(§2) Chemotaxis was stimulated using either bacterial endotoxin-activated mouse serum (AS), prepared according to Stevenson et al.^18 for macrophage cell lines, or 100 ng/mL interleukin-8 (IL-8) for meutrophils. […] The number of displaced cells was quantified by the addition of 3-(4.5-dimethylthiazol-2-yl)-2.5-[…] tetrazolium bromide (MTT) to a final concentration of 250 μg/mL that was incubated at 37° C. for 4 hours. […] The plate was analyzed within 2 hours on a microtiter plate ELISA reader with a filter of 540 nm. […]

[2] = system: macrophage cell line S1; test: Chemotaxis of macrophage cell line S1 to endotoxin-activated mouse serum (complement); format: cell-based; conditions: peptide 2 μg/mL; FIG. 11
Method: as §1
(§3) The macrophage cell lines S1 and WEHI-3 were used to analyze the effect of antibodies and synthetic peptide on macrophage chemotaxis to endotoxin-activated mouse serum (AS). These cell lines were also maintained in DME with 10% FCS and 20 mM Hepes buffer, pH 7.2 at 37° C. and 5% CO2 in air.
as §2, with “meutrophils. Heat-inactivated serum (56° C. for 20 minutes) or medium served as negative controls respectively.” for “meutrophils.”

[3] = system: macrophage cell line WEHI-3; test: Chemotaxis of macrophage cell line WEHI-3 to endotoxin-activated mouse serum (complement); format: cell-based; conditions: peptide 2 μg/mL; FIG. 11
Method: as §1, §3
as §2, with “meutrophils. Heat-inactivated serum (56° C. for 20 minutes) or medium served as negative controls respectively.” for “meutrophils.”

[4] = system: smooth muscle cells isolated from bovine aorta; test: Smooth muscle cell migration after wounding of monolayers (timelapse cinemicrography); format: cell-based
Method: as §1
Smooth muscles cells were isolated from bovine aorta as described previously for rate aorta^17 and were maintained in Dulbecco's Modified Eagles medium (DME) supplemented with 10% fetal calf serum (FCS) and 20 mM Hepes buffer, pH 7.2 at 37° C. and 5% CO2 in air. All experiments were performed using defined medium [DM, Dulbecco's Modified Eagles medium with 20 mM HEPES buffer, pH 7.2, 0.5 U/mL insulin (beef and pork zinc suspension, Novo Laboratories Ltd., Willowdale, Ontario) and 4 μg/mL transferrin (Sigma Chemical Co., St. Louis, Mo.)], and the culture medium was replaced 24 hours before filming. […]
Injured cell monlayers were monitored for motility using an 1 M 35 Zeiss inverted microscope to which a video camera (Hamamatsu CCD, Inc., Japan) was attached. […] This program allows quantification of nuclear displacement from a sequence of digitalized images. The motility of thirty cells in each experiment was followed for a period of 24 hours with mean velocities calculated every hour.

[5] = system: injured carotid arteries; test: Balloon angioplasty in rabbits perfused with hyaluronan, carotid artery histology; format: in vivo, rabbit; conditions: perfused with hyaluronan 5 mg/ml just prior to injury; for adherence / accumulation of white cells on the endothelium of the injured carotid artery: 2, 24, 48 hours after injury
Method: 10 rabbits were anesthetized and balloon angioplasty was performed on them. The rabbits were perfused with hyaluronan (5 mg/ml) or buffer alone and allowed their recover. […] Sections were stained with hematoxylin or with anti RHAMM antibodies. 10 sections of each treatment were analyzed.

[6] = system: balloon catheter injured common carotid artery; test: Balloon catheter injury of the common carotid artery in cholesterol-fed rabbits, hyaluronan i.v. bolus then daily s.c.; format: in vivo, New Zealand White rabbit; conditions: for reduction in mean intimal macrophage content: versus cholesterol-diet alone, p<0.02; for reduction of the absolute neo-intimal response to injury (absolute size of the neo-intima): versus cholesterol-fed group given saline, p<0.05, 15 mg/kg/day
Description: Juvenile New Zealand White rabbits (3 to 6 months old), weighing approximately 2.5 kg were obtained from Rosemead Rabbit Co. Essex, UK) and housed in the Biological Services Unit of St. bartholomew's Hospital Medical College, London.
After one week on a commercial rabbit chow diet (Scientific Diet Services, Essex, UK) the animals were started on a 2% cholesterol diet (Scientific Diet Services, Essex, UK). Water was allowed ad libitum.
One week after starting the above diet, animals were anaesthetized with intramuscular xylazine [Rompun (Bayer, Suffolk, UK); 40 mg/kg] and ketamine [Vetalar (Parke-Davis, UK); 10 mg/kg]. The left carotid bifurcation was exposed through a paramedian incision, and the external carotid artery prepared for balloon injury. The animals were injected with a bolus of sterile sodium hyaluronate (15 mg/kg) referred to at page 15, line 31 to page 16 line 1 (Hyal Pharmaceutical Corporation, Ontario, Canada) or saline via a marginal ear vein. Endothelium was then removed from the entire left common carotid artery by the passage of an inflated 2F French Fogarty Embolectomy catheter as previously described (Ferns et al 1992). The catheter was then withdrawn, the external carotid tied off, and the skin and deep fascia closed with chromic catgut and discontinuous 3-O silk. The validity of the procedure for endothelial cell denudation was assessed by scanning electron microscopy of a number of carotids from animals killed immediately post-operatively. Animals received a further subcutaneous injection of hyaluronic acid (15 mg/kg) or saline post-operatively, and daily until sacrifice.
Blood for serum cholesterol was collected from each animal before the start of each experimental diet, peri-operatively and at the time of sacrifice. Samples were separated by centrifugation and stored at −20° C. prior to analysis.
Two weeks after carotid de-endothelialization, the animals were sedated with intramuscular xylazine and ketamine and given an intravenous injection of 2% Evans blue in isotonic phosphate-buffered saline. Five minutes later, an abdominal incision was made to access the abdominal aorta for insertion of a cannula connected to a perfusion apparatus, and both jugular veins exposed for perfusion run-off. The animals were then killed by an overdose of anaesthetic and perfused with buffered saline at a rate of 100 ml/minute/kg body weight. When the run-off was clear, the saline was replaced with 4% paraformaldehyde in isotonic PBS at the same flow rate. Perfusion was continued for 15 minutes. After fixation in situ, the denuded and contralateral carotids were dissected free and cleaned of adherent fat and fascia. The segments were immediately rinsed in PBS and placed in fresh 4% paraformaldehyde overnight for paraffin embedding. Some segments were placed into 2.5% glutaraldehyde for subsequent processing for electron microscopy.
Five micron sections were taken from the blue (de-endothelialised) segments of carotid artery, for haematoxylin and eosin (H&E) staining. Adjacent sections were cut for elastin staining using Verhoeff-Van Geisen (VVG) stain, and immunostaining using monoclonal antibodies directed against rabbit alveolar macrophages (RAM-11) and smooth muscle cell actin (HHF-35), as described by Tsukada et al. (1986).
Serum cholesterol levels were measured by the CHOD-POD enzymatic-colorimetric method using a Cholesterol C-system kit (Boehringer Corp., Lewes, UK) and a Vitalab 100 autoanalyzer with Precipath U and Precinorm U (Boehringer Corp., Lewes, UK) quality control material.
The intimal and medial thickness of each segment was measured using a Zeiss Axioskop microscope equipped with a X10 Achroplan objective, a digitizing pad and an IBM 55SX PC containing a VIDS V interface card and VIDS V software. Measurements were performed in duplicate on three mid-carotid VVG stained sections. […]

[7] = system: balloon angioplasty injured carotid artery; test: Balloon angioplasty injury in cholesterol-fed rabbits, hyaluronan injections administered subcutaneously; format: in vivo, rabbit
Method: Tests were conducted with cholesterol-fed rabbits and the following was found. The tests were of the same nature except that the injections of the hyaluronan (sodium hyaluronate) were administered subcutaneously.

[8] = MEAN of HYAL + CHOL group, N=15, 2 weeks after injury
[9] = hyaluronan-treated group, 2 weeks after injury
[10] = individual animals of the HYAL + CHOL group, 2 weeks after injury
[11] = mean ± SEM, n=15, Hyal 15 mg/kg/d
[12] = HYAL + CHOL group, n=15, s.c. injections

YKQKIKHVVKLK [peptide aa^401-411]
chemotaxis of neutrophils to IL-8 [1]: significantly inhibited | chemotaxis of S1 to endotoxin-activated mouse serum [2]: inhibited | chemotaxis of WEHI-3 to endotoxin-activated mouse serum [3]: inhibited | locomotion of smooth muscle cells responding to injury ([4]; peptides 100 ng/plate, FIG. 6): inhibits | rate of translocation of smooth muscle cells following wounding of monolayers ([4]; peptides 2 μg/mL, 5 hours after wounding, FIG. 12): significantly reduced

sodium hyaluronate
endothelial cell layer of the injured carotid artery (histology) [5]: intact endothelial cell layer | adherence / accumulation of white cells on the endothelium of the injured carotid artery ([5]; listed as Hyaluronan): abolished | adherence / accumulation of white cells on the endothelium of the injured carotid artery ([5]; listed as hyaluronan): do not exhibit accumulations of white cells | intimal thickening in the cholesterol-fed rabbits ([6]; 15 mg/kg i.v. immediately pre-operatively, then daily s.c. for fourteen days): significantly inhibited | neo-intimal macrophage content in the cholesterol-fed rabbits ([6]; 15 mg/kg/d, 2 weeks after injury): reduced | mean medial thickness compared with the control animals ([6]; 2 weeks after injury, p>0.05): did not differ significantly | Body Weight, Sacrifice ([6]; MEAN of HYAL + CHOL group, N=15): 2.64 kg | I/M [6, 8]: 0.59 | INTIMA [6, 8]: 65.79 microns | Intimal Macrophage Content (%) [6, 8]: 3.22% | MEDIA [6, 8]: 105.01 microns | Mean weight, Sacrifice ([6]; group mean ± SEM, n=15, at sacrifice, Hyal 15 mg/kg/d): 2.64 ± 0.09 kg | intima: media ratio [6, 9]: 0.59±0.011 | mean intimal macrophage content [6, 9]: 3.22±1.05% | I/M [6, 10]: 0.68 and 1.10 and 0.21 and 0.42 and 0.46 and 0.30 and 1.03 and 0.66 and 0.24 and 1.61 and 0.81 and 0.10 and 0.72 and 0.08 and 0.45 | INTIMA [6, 10]: 82.60 microns and 212.00 microns and 22.00 microns and 55.62 microns and 42.10 microns and 17.44 microns and 76.40 microns and 48.23 microns and 26.63 microns and 187.50 microns and 112.22 microns and 8.44 microns and 84.87 microns and 8.38 microns and 2.35 microns | Intimal Macrophage Content (%) [6, 10]: 6.90% and 13.20% and 3.10% and 5.50% and 0.17% and 1.10% and 0.40% (2×) and 0.00% (2×) and 1.70% and 7.80% and 0.50% and 4.70% and 2.90% | MEDIA [6, 10]: 118.90 microns and 200.00 microns and 109.00 microns and 139.14 microns and 91.10 microns and 78.28 microns and 74.70 microns and 74.65 microns and 111.50 microns and 118.72 microns and 143.77 microns and 83.43 microns and 120.62 microns and 105.57 microns and 5.81 microns | Body Weight, Sacrifice ([6]; individual animals of the HYAL + CHOL group, at sacrifice): 2.60 kg (2×) and 2.89 kg and 2.91 kg and 3.40 kg and 2.88 kg and 2.81 kg (2×) and 2.25 kg and 2.74 kg and 2.35 kg and 2.15 kg and 2.40 kg and 2.38 kg and 2.42 kg | Body Weight, Start ([6]; individual animals of the HYAL + CHOL group, before treatment): 2.25 kg | Mean Intimal thickness 2 weeks after injury [6, 11]: 0.068 ± 0.016 mm | Mean intima/media ratio 2 weeks after injury [6, 11]: 0.59 ± 0.11 | Mean intimal macrophage content 2 weeks after injury (% of total cell number) [6, 11]: 3.22 ± 0.98% | gain in body weight over the three week experimental period ([6]; rabbit, in vivo): approximately 30% | reduction in mean intimal macrophage content ([6]; 2 weeks after injury, listed as Hyaluronan): 62% | reduction in mean intimal macrophage content ([6]; 2 weeks after injury, listed as hyaluronan): approximately 62% | reduction of the intima: media ratio ([6]; versus cholesterol-fed control group, 2 weeks after injury, 15 mg/kg/d): 35% | reduction of the absolute neo-intimal response to injury (absolute size of the neo-intima) ([6]; 2 weeks after injury, 15 mg/kg/d, listed as Hyaluronan): 42% | reduction of the absolute neo-intimal response to injury (absolute size of the neo-intima) ([6]; 2 weeks after injury, 15 mg/kg/d, listed as hyaluronan): approximately 46% | mean I:M ratio [7, 12]: 0.591 | mean absolute intimal thickness [7, 12]: 95.7 μm | neo-intimal thickness following balloon angioplasty injury ([7]; cholesterol-fed rabbits, FIGS. 20 and 21): significantly inhibited
